Measured values from ChEMBL document CHEMBL4346657, “Anticancer activity, dual prooxidant/antioxidant effect and apoptosis induction profile of new bichalcophene-5-carboxamidines” (Eur J Med Chem, 2019).
The source made the active and inactive calls. The rule behind the calls is not given here.

How the values were obtained:
HCT-116 [1] = experiment: Induction of apoptosis in human HCT116 cells assessed as increase in caspase 9 mRNA expression at 100 nM after 6 hrs hrs by SYBR green dye-based qRT-PCR analysis relative to control; assay type: functional
SF-268 = experiment: Antiproliferative activity against human SF268 cells assessed as growth inhibition after 48 hrs by sulforhodamine B assay; assay type: functional; details: SF-268, 48 h
[2] = tested on: Panel NCI-60 (60 carcinoma cell lines); experiment: Antiproliferative activity against human NCI60 cells assessed as growth inhibition at 10 uM after 48 hrs by sulforhodamine B assay; assay type: functional; details: read-out: GI
UACC-257 = experiment: Antiproliferative activity against human UACC257 cells assessed as growth inhibition after 48 hrs by sulforhodamine B assay; assay type: functional; details: UACC-257, 48 h
[3] = Antioxidant activity assessed as DPPH radical scavenging activity incubated in dark for 30 mins by spectrophotometric method relative to control; assay type: functional; design: concentration or dose not given beside the values
U-251 = experiment: Antiproliferative activity against human U251 cells assessed as growth inhibition after 48 hrs by sulforhodamine B assay; assay type: functional; details: U-251, 48 h
MOLT-4 = experiment: Antiproliferative activity against human MOLT4 cells assessed as growth inhibition after 48 hrs by sulforhodamine B assay; assay type: functional; details: MOLT-4, 48 h
HT-29 = experiment: Antiproliferative activity against human HT-29 cells assessed as growth inhibition after 48 hrs by sulforhodamine B assay; assay type: functional; details: HT-29, 48 h
DU-145 = experiment: Antiproliferative activity against human DU145 cells assessed as growth inhibition after 48 hrs by sulforhodamine B assay; assay type: functional; details: DU-145, 48 h
RPMI-8226 = experiment: Antiproliferative activity against human RPMI8226 cells assessed as growth inhibition after 48 hrs by sulforhodamine B assay; assay type: functional; details: RPMI-8226, 48 h
TK-10 = experiment: Antiproliferative activity against human TK10 cells assessed as growth inhibition after 48 hrs by sulforhodamine B assay; assay type: functional; details: TK-10, 48 h
HOP-62 = experiment: Antiproliferative activity against human HOP62 cells assessed as growth inhibition after 48 hrs by sulforhodamine B assay; assay type: functional; details: HOP-62, 48 h
LOX IMVI = experiment: Antiproliferative activity against human LOXIMVI cells assessed as growth inhibition after 48 hrs by sulforhodamine B assay; assay type: functional
HCT-116 [4] = experiment: Induction of apoptosis in human HCT116 cells assessed as increase in caspase 3 mRNA expression at 100 nM after 6 hrs hrs by SYBR green dye-based qRT-PCR analysis relative to control; assay type: functional
SR = experiment: Antiproliferative activity against human SR cells assessed as growth inhibition after 48 hrs by sulforhodamine B assay; assay type: functional
SF-539 = experiment: Antiproliferative activity against human SF539 cells assessed as growth inhibition after 48 hrs by sulforhodamine B assay; assay type: functional; details: SF-539, 48 h
[5] = Antioxidant activity assessed as DPPH radical scavenging activity incubated in dark for 30 mins by spectrophotometric method relative to ascorbic acid; assay type: functional
[6] = Antioxidant activity assessed as ABTS radical scavenging activity by spectrophotometric analysis relative to control; assay type: functional; design: concentration or dose not given beside the values; details: dose or concentration not given here
HCC 2998 = experiment: Antiproliferative activity against human HCC2998 cells assessed as growth inhibition after 48 hrs by sulforhodamine B assay; assay type: functional; details: HCC 2998, 48 h
UACC-62 = experiment: Antiproliferative activity against human UACC62 cells assessed as growth inhibition after 48 hrs by sulforhodamine B assay; assay type: functional; details: UACC-62, 48 h
Malme-3M = experiment: Antiproliferative activity against human MALME-3M cells assessed as growth inhibition after 48 hrs by sulforhodamine B assay; assay type: functional
NCI-H23 = experiment: Antiproliferative activity against human NCI-H23 cells assessed as growth inhibition after 48 hrs by sulforhodamine B assay; assay type: functional; details: NCI-H23, 48 h
T47D = experiment: Antiproliferative activity against human T47D cells assessed as growth inhibition after 48 hrs by sulforhodamine B assay; assay type: functional
A549 = experiment: Antiproliferative activity against human A549/ATCC cells assessed as growth inhibition after 48 hrs by sulforhodamine B assay; assay type: functional; details: A549, 48 h
MDA-MB-468 = experiment: Antiproliferative activity against human MDA-MB-468 cells assessed as growth inhibition after 48 hrs by sulforhodamine B assay; assay type: functional; details: MDA-MB-468, 48 h
[7] = Haemolytic activity in human erythrocytes assessed as induction of hemolysis at 2.5 mM after 30 mins relative to H202; assay type: cell-based, Erythrocyte; details: erythrocytes, read-out: Activity
[8] = Pro-oxidant activity assessed as increase in bleomycin-Fe2+ induced calf thymus DNA damage at 2 mM after 1 hr by thiobarbituric acid based absorbance analysis
MCF7 = experiment: Antiproliferative activity against human MCF7 cells assessed as growth inhibition after 48 hrs by sulforhodamine B assay; assay type: functional; details: MCF7, 48 h
OVCAR-8 = experiment: Antiproliferative activity against human OVCAR8 cells assessed as growth inhibition after 48 hrs by sulforhodamine B assay; assay type: functional; details: OVCAR-8, 48 h
OVCAR-4 = experiment: Antiproliferative activity against human OVCAR4 cells assessed as growth inhibition after 48 hrs by sulforhodamine B assay; assay type: functional; details: OVCAR-4, 48 h
[9] = Antioxidant activity assessed as hydroxyl radical scavenging activity after 1 hr by salicylic acid-based Fenton reaction assay; assay type: functional
Erythrocyte = experiment: Haemolytic activity in human erythrocytes assessed as induction of hemolysis at 1.25 mM after 30 mins relative to H202; assay type: cell-based; details: erythrocyte, 0.5 h, 1250 µM
SW-620 = experiment: Antiproliferative activity against human SW620 cells assessed as growth inhibition after 48 hrs by sulforhodamine B assay; assay type: functional; details: SW-620, 48 h
SK-OV-3 = experiment: Antiproliferative activity against human SKOV3 cells assessed as growth inhibition after 48 hrs by sulforhodamine B assay; assay type: functional; details: SK-OV-3, 48 h
[10] = Haemolytic activity in human erythrocytes assessed as induction of hemolysis at 10 mM after 30 mins relative to H202; assay type: cell-based, Erythrocyte; details: read-out: Activity
HCT-116 [11] = experiment: Antiproliferative activity against human HCT116 cells assessed as growth inhibition after 48 hrs by sulforhodamine B assay; assay type: functional; details: HCT-116, 48 h
HOP-92 = experiment: Antiproliferative activity against human HOP92 cells assessed as growth inhibition after 48 hrs by sulforhodamine B assay; assay type: functional; details: HOP-92, 48 h

SMILES	fold change (FC) (HCT-116 [1])	GI50 (SF-268) [µM]	inhibition of growth at 10 µM [2] [%]	GI50 (UACC-257) [µM]	inhibition [3] [%]	GI50 (U-251) [µM]	GI50 (MOLT-4) [µM]	GI50 (HT-29) [µM]	GI50 (DU-145) [µM]	GI50 (RPMI-8226) [µM]	GI50 (TK-10) [µM]	GI50 (HOP-62) [µM]	GI50 (LOX IMVI) [µM]	fold change (FC) (HCT-116 [4])	GI50 (SF-539) [µM]	fold change (FC) [5]	inhibition [6] [%]	GI50 (HCC 2998) [µM]	GI50 (UACC-62) [µM]	GI50 (Malme-3M) [µM]	further results
COc1ccc(-c2ccc(-c3ccc(C(=N)N)o3)o2)cc1	2.31	2.04	86.4	11.1	61.7	1.74	1.2	0.48	1.91	2.68	7.97	1.5	1.48	2.67	1.89	0.7	69.2	1.58	1.29	3.97	GI50 (SR): 0.42 µM; GI50 (NCI-H23): 4.34 µM; GI50 (T47D): 1.53 µM; GI50 (A549): 1.49 µM; GI50 (MDA-MB-468): 0.86 µM; hemolysis at 0.5 h, 2500 µM [7]: 8.1%; Activity [8]: Active; GI50 (MCF7): 0.33 µM; GI50 (OVCAR-8): 3.19 µM; GI50 (OVCAR-4): 2.22 µM; Activity [9]: Active; Activity (Erythrocyte): Non-Toxic; GI50 (SW-620): 0.53 µM; GI50 (SK-OV-3): 5.63 µM; hemolysis at 0.5 h, 10000 µM [10]: 71.7%; GI50 (HCT-116 [11]): 1.07 µM
N=C(N)c1ccc(-c2ccc(-c3ccc(F)cc3)s2)s1	3.89	1.69	-25.8	2.19	44.8	1.8	1.52	1.53	1.72	2.1	1.72	1.64	1.62	3.71	1.67	0.5	49.7	1.73	1.94	1.81	GI50 (SR): 1.17 µM; GI50 (NCI-H23): 1.8 µM; GI50 (T47D): 1.74 µM; GI50 (A549): 1.93 µM; GI50 (MDA-MB-468): 2.04 µM; hemolysis at 0.5 h, 2500 µM [7]: 14%; Activity [8]: Active; GI50 (MCF7): 1.15 µM; GI50 (OVCAR-8): 2.23 µM; GI50 (OVCAR-4): 1.68 µM; Activity [9]: Active; Activity (Erythrocyte): Non-Toxic; GI50 (SW-620): 1.74 µM; GI50 (SK-OV-3): 1.8 µM; hemolysis at 0.5 h, 10000 µM [10]: 93.3%; GI50 (HCT-116 [11]): 1.73 µM
N=C(N)c1ccc(-c2ccc(-c3ccccc3)o2)o1	2.28	2.98	68.2	2.52	30.9	2.22	3.31	2.11	3.3	2.89	3.32	3.59	1.7	2.33	1.95	0.3	41.3	1.61	1.93	1.75	GI50 (NCI-H23): 5.78 µM; GI50 (HOP-92): 1.85 µM; GI50 (A549): 3.55 µM; GI50 (MDA-MB-468): 1.64 µM; hemolysis at 0.5 h, 2500 µM [7]: 7%; Activity [8]: Active; GI50 (MCF7): 1.68 µM; GI50 (OVCAR-8): 4 µM; GI50 (OVCAR-4): 3.48 µM; Activity [9]: Active; Activity (Erythrocyte): Non-Toxic; GI50 (SW-620): 1.79 µM; GI50 (SK-OV-3): 4.3 µM; hemolysis at 0.5 h, 10000 µM [10]: 66.7%; GI50 (HCT-116 [11]): 2.07 µM
N=C(N)c1ccc(-c2ccc(-c3ccc(F)cc3)o2)o1	4.67	1.92	83.8	1.98	9.9	1.6	1.6	0.61	1.8	2.48	1.55	1.6	1.55	3.88	1.63	0.1	13.2	1.37	1.74	1.63	GI50 (NCI-H23): 1.93 µM; GI50 (HOP-92): 1.21 µM; GI50 (A549): 1.65 µM; GI50 (MDA-MB-468): 1.36 µM; hemolysis at 0.5 h, 2500 µM [7]: 17.6%; Activity [8]: Active; GI50 (MCF7): 0.68 µM; GI50 (OVCAR-8): 1.98 µM; GI50 (OVCAR-4): 1.62 µM; Activity [9]: Active; Activity (Erythrocyte): Non-Toxic; GI50 (SW-620): 0.94 µM; GI50 (SK-OV-3): 2.32 µM; hemolysis at 0.5 h, 10000 µM [10]: 90%; GI50 (HCT-116 [11]): 1.18 µM
